Laboratory results from patent US6989270B1, “Using polyamide nucleic acid oligomers to engender a biological response” (Mayo Foundation for Medical Education and Research, priority 1997, dated 2006).

Tested on: neurotensin receptor-1 (NTR1)
Assay: Hot plate test of NT-mediated anti-nociception in PNA-treated rats
Format: in vivo, rat
Method: Under an Institutional Animal Care and Use Committee approved protocol and under sterile conditions male Sprague-Dawley rats (180-200 g) were stereotaxically implanted with stainless steel guide cannulae (26 gauge) into the PAG under sodium pentobarbital anesthesia (50 mg/kg, i.p.) as described in detail elsewhere (Jensen T. S. and Yaksh T. L., Brain Res. 372:301-312 (1986) and Al-Rodhan N.R.F., Brain Res. 557:227-235 (1991)). The coordinates used for PAG cannulations are -5.6 mm posterior from bregma, 1.0 mm lateral from bregma, and 5.5 mm down from the dura. The guide cannula was pre-measured to be 5.5 mm (Plastics One, Roanoke, Va.) and the internal cannula was ordered to fit below the pedestal with a 2.0 mm projection. The guide cannula was then fixed to the skull using a stainless steel screw (⅛ inch) and cranioplastic cement. A stainless steel stilette was then placed in each guide to keep it patent and free of debris. Immediately after surgery, the animals were allowed to recover before returning them to an individual housing cage. All injections began 5-7 days after surgery.
NTR1-PNA oligomers were injected, using a Hamilton digital syringe, into the PAG through the internal cannula, which extended 2 mm below the guide tip. The internal cannula was connected with a length of polyethylene tubing (PE-20) filled with saline solution. A small air bubble was introduced into the tubing to separate the saline from a solution containing 1.3 nmol of NTR1-PNA oligomers in artificial cerebral-spinal fluid (ACSF). The volume of the solution containing the NTR1-PNA oligomers was about 1.0 μl. The bubble was used to confirm the movement of this solution through the polyethylene tubing.
NTR1-PNA oligomers were injected into the PAG of each rat three times, on days -4, -2, and 0. Controls included rats receiving no injections, rats receiving injections of ACSF only, and rats receiving PNA oligomers having sequence specificity for an unrelated polypeptide, the mu-1 morphine receptor (MU1R). The sequence of MU1R-PNA is 5′-[…]-3′ (SEQ ID NO: 2).
The injection of NT in the PAG of rats produces a potent anti-nociceptive response as well as hypothermia. These responses are mediated by specific NT receptors and are not inhibited by naloxone. A very sensitive and reliable hot plate test was used to measure the anti-nociceptive effects of NT (Al-Rodhan N.R.F., Brain Res. 557:227-235 (1991)).
NTR1-PNA, MU1R-PNA, and ACSF treated as well as untreated rats were analyzed using the hot plate test for NT. One day after the last treatment, each rat was analyzed as follows. Fifteen minutes prior to testing, a pre-drug latency measurement was made by placing the rat on a hot plate maintained at a temperature of 52±0.15° C. and recording the time elapsed before the rat licked either of its hindpaws. In addition, the temperature of the rat was taken using a thermister probe inserted 3 cm in the rectum to determine the pre-drug body temperature (BT). After making these measurement, an appropriate dose of NT (18 nmol) at a volume of about 0.5 ul was administered into the PAG as described above. Thirty minutes after administering NT, the rat was again placed on a hot plate maintained at a temperature of 52±0.15° C. and the latency between the time the rat was placed on the surface and the time it licked either of its hindpaws was measured. […] Hot plate tests were scored as the percent of maximum possible effect (% MPE) and calculated using the following equation: % MPE=[(post-drug latency−pre-drug latency)/(cut-off−pre-drug latency)]×100; where the cut-off is 30 seconds. […] This average for untreated control rats was used to set the baseline MPE value to 100. Immediately after the 30 second hot plate test, BT was taken to measure NT-induced hypothermia using a thermister probe inserted 3 cm in the rectum. […] All test situations were compared to these baseline values derived from NT responsive untreated controls. […]

NTR1-PNA: 12-mer antisense PNA oligomer to rat NTR1 coding region, 5′-CATTGCTCAAAC-3′ (SEQ ID NO: 1) (all peptide nucleic acid (PNA))
anti-nociception score (hot plate) after NT (10 mg/kg intraperitoneally, NT 18 nmol into PAG 24 hours later): 25 % MPE
time until which NT-mediated anti-nociception remained significantly reduced (PNA injected into PAG on days -4, -2, 0): day five
Responsiveness: NT (anti-nociception and hypothermia) (intraperitoneal administration, Table VI): lost
time for responses to NT to return to baseline levels after PNA injection (single injection 10 mg/kg, tested every 24 hours with NT): ≤ 48 h
